One assay deals with T1, p53-Y220C mutant protein (Homo sapiens, UniProt P04637, Y220C).
T1 construct: The recombinant Y220C p53 DBD protein with his-tag
The experiment in a line: In vitro DNA binding activity assay (TR-FRET). The format is biochemical. The note with it: concentration required to increase the binding activity of protein to DNA by 50%. The essentials:
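His-tagged Y220C p53 DBD was equilibrated with compound 60 min at room temperature, then biotin-DNA, anti-6His-Eu and streptavidin-d2 were added and incubated overnight in the dark. TR-FRET 665/615 nm ratio, background-corrected, was expressed as % activity versus vehicle; SC150 is the concentration raising DNA binding by 50%.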

Assay [1] addresses CYP 3A4 enzyme in human liver microsomes (Homo sapiens, UniProt P08684). Briefly: CYP3A4 inhibition experiment in human liver microsomes. The method, then: The inhibitory effects of the test compounds on CYP 3A4T (with testosterone as substrate) and 3A4M (with midazolam as substrate) in human liver microsomes were evaluated in vitro to assess the medication safety of the compounds.
This study used the human liver microsome system and the cytochrome P450 enzyme probe substrate recommended by FDA guidelines for in vitro drug interaction studies to investigate the inhibition of the CYP 3A4 enzyme in human liver microsomes by the test compounds.
Test group (TG): Human liver microsomes were incubated with different concentrations of test compounds, NADPH (final concentration 2.00 mM) and probe substrates of different sub-enzymes (Table 4) for 5 min.
Positive control group (PC): Human liver microsomes were incubated with inhibitors (Table 4), NADPH (final concentration 2.00 mM) and probe substrates of different sub-enzymes (Table 4) for 5 min. Table 4 Probe substrates of sub-enzymes, inhibitors and incubation systems
The system was pre-incubated at 37°C for 5 min, and then 15 µL of 8 mM NADPH solution preheated at 37°C for 5-10 min to start the reaction. After incubation of the 96-well plate at 37°C for 5 min, 180 µL of acetonitrile:methanol (ACN:MeOH=1:1) solution containing internal standard (IS) was added to terminate the reaction. […] 80 µL of the supernatant was taken, added to 120 µL of ultrapure water, shaken evenly, and then detected by LC-MS/MS.
199 µL of 0.2 mg/mL HLM and 1 µL of 1 mM positive control inhibitor (ketoconazole) working solutions were taken and mixed evenly. 30 µL of the drug-containing liver microsome solution was taken and added to a 96-well plate, then 10 µL of substrate working solution (20 µM midazolam) was added, in duplicate. The system was pre-incubated at 37°C for 5 min, and then 15 µL of 8 mM NADPH solution preheated at 37°C for 5-10 min to start the reaction. After incubation of the 96-well plate at 37°C for 5 min, 180 µL of ACN:MeOH(1:1) solution containing IS was added to terminate the reaction. […] 80 µL of the supernatant was taken, added to 120 µL of ultrapure water, shaken evenly, and then detected by LC-MS/MS.
4.2.5.1 The relative activity of CYP450 sub-enzymes at different concentrations was calculated by dividing the peak area ratio (analyte peak area/internal standard peak area) of metabolites in the presence of the test sample or positive control by the peak area ratio of metabolites in the solvent control sample in the absence of the test article or positive control, according to the following formula: [formula] [formula]
4.2.5.2 Half maximal inhibitory concentration (IC50) was obtained by fitting according to the following model formula using Prism software: Y = Bottom + (Top−Bottom)/(1+10^(∧)((LogIC50−X)×HillSlope)) [formula]
X is the test sample concentration converted to logarithm (Log µM), Y is the relative activity (% of NC), Bottom and Top represent the percentage of enzyme activity at the bottom platform and top platform of the curve, respectively, and HillSlope represents the slope; to optimize the fitting effect, the use of other (nonlinear) dose-response models for fitting is not considered as a deviation from the protocol.

The mark [2] stands for this setting: CYP 3A4M IC50, human liver microsomes, midazolam as substrate.
Setting [3] is: CYP 3A4T IC50, human liver microsomes, testosterone as substrate.

Drawing on patent EP4737449A1 (Changchun Genescience Pharmaceutical Co., Ltd., priority 2023, dated 2025), this text covers SC150 and IC50 for four compounds.

Molecules are shown by their SMILES. pIC50: −log10 of the molar value.

CYP 3A4 enzyme in human liver microsomes, sequence (P08684 whole entry): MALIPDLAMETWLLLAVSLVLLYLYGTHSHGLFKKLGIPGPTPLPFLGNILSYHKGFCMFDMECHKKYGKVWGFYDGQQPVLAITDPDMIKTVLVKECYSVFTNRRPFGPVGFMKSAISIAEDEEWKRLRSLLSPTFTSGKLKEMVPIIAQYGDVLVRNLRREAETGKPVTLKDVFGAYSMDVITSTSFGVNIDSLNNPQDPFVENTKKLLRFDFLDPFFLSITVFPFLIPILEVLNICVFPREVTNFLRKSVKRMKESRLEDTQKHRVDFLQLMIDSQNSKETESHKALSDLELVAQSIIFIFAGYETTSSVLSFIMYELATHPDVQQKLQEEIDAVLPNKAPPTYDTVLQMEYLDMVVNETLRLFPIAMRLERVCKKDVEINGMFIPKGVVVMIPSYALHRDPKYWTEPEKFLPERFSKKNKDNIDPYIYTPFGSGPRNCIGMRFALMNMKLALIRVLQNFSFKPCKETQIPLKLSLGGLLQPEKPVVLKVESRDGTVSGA

As for `CNC(=O)c1ccc(NCC#Cc2cc3c(N[C@@H]4CCN(C)C[C@@H]4F)cccc3n2CC(F)(F)F)c(OC)c1` [Control compound, reference compound], the SC150 at p53-Y220C mutant protein was 14 nM. For the same compound, the pIC50 in assay [1] (setting [2]) was 5.03; in assay [1] (setting [3]) it was 5.37.
`CN1CC[C@@H](Nc2cccc3c(CC(F)(F)F)c(C#CCNC(=O)c4cnn(C(C)(C)C)c4)nn23)[C@@H](F)C1` [Compound 001, 1-tert-butyl-N-[3-(7-{[(3S,4R)-3-fluoro-1-methylpiperidin-4-yl]amino}-3-(2,2,2-trifluoroethyl)pyrazolo[1,5-a]pyridin-2-yl)prop-2-yn-1-yl]-1H-pyrazole-4-carboxamide] gave an SC150 on p53-Y220C mutant protein of 10 nM. Besides, the negative logarithm of the IC50 (pIC50) in assay [1] (setting [2]) was 4.58; in assay [1] (setting [3]) it was 4.57.
As to `CN1CC[C@@H](Nc2cccc3c(CC(F)(F)F)c(C#CCNC(=O)c4cnn(C(C)(C)C)c4N)nn23)[C@@H](F)C1` [Compound 047], the SC150 on p53-Y220C mutant protein turned out to be 7 nM. In addition, the negative logarithm of the IC50 (pIC50) was 4.68 in assay [1] (setting [2]) and 4.76 in assay [1] (setting [3]).
The matching figures for `CCn1ncc(C(=O)NCC#Cc2nn3c(N[C@@H]4CCN(C)C[C@@H]4F)cccc3c2CC(F)(F)F)c1N` [Compound 261, 5-amino-1-ethyl-N-[3-(7-{[(3S,4R)-3-fluoro-1-methylpiperidin-4-yl]amino}-3-(2,2,2-trifluoroethyl)pyrazolo[1,5-a]pyridin-2-yl)prop-2-yn-1-yl]-1H-pyrazole-4-carboxamide]: 6 nM, 4.81 and 5.13.
